Data from patent US20150166523A1, “BRANCHED CHAIN ALKYL HETEROAROMATIC RING DERIVATIVE” (TAISHO PHARMACEUTICAL CO., LTD., priority 2012, published 2015).

Assays:
[1] = biological target: T1, human orexin-1 receptor (hOX1R) (Homo sapiens, UniProt O43613); assay: Measurement of orexin antagonistic activity (intracellular Ca2+ fluorescence, FDSS) on hOX1R; format: cell-based; details: CHO cells forcibly expressing hOX1R; Fluo-4AM; ligand peptide (substituted human orexin-A) 300 pM; compound preincubated 30 minutes; read-out: IC50 Value OX1
T1 construct: expressed in transfected cells; host or cells: Chinese hamster ovary (CHO) cells
T1 sequence (O43613 1-425): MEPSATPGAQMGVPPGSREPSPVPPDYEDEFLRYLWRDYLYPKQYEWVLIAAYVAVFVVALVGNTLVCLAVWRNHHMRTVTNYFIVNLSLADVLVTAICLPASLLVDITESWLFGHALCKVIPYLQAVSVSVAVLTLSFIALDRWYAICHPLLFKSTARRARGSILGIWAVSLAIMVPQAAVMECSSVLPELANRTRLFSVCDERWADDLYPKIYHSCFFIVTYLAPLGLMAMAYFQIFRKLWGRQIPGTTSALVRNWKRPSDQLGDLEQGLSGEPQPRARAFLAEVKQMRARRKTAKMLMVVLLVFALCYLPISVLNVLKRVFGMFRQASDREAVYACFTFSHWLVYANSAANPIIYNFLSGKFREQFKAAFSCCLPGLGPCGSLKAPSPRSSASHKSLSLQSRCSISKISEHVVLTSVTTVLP
Experimental: (§1) The antagonistic activities of the test compounds on human orexin-1 receptor (hOX1R) and orexin-2 receptor (hOX2R) were measured by modifying from the method described in literature (Toshikatsu Okumura et al., Biochemical and Biophysical Research Communications, 280, 976-981, 2001). Chinese hamster ovary (CHO) cells forcibly expressing the hOX1R and hOX2R were seeded into a 96 well Black clear bottom plate (Nunc) at 20,000 cells per well, which were cultured in Ham's F-12 medium containing 0.1 mM MEM non-essential amino acids, 0.5 mg/mL G418, 10% fetal bovine serum (all by Invitrogen) for 16 hours under the conditions of 37° C., 5% CO2. After removing the medium, 100 μL of 0.5 μM Fluo-4AM ester (Dojin) in an assay buffer (25 mM HEPES (Dojin), Hank's balanced salt solution (Invitrogen), 0.1% bovine serum albumin, 2.5 mM probenecid, 200 μg/mL Amaranth (all by Sigma-Aldrich), pH 7.4) was added and the cells were incubated for 60 minutes at 37° C., 5% CO2. After removing the assay buffer containing fluo-4AM ester, the test compound was dissolved in dimethyl sulfoxide to be 10 mM and diluted with the assay buffer, 150 μL, of which was added and incubated for 30 minutes.
(§2) The reaction was measured for the fluorescence intensity of each well every second for 3 minutes using Functional Drug Screening System (FDSS; Hamamatsu Photonics K.K.), and the antagonistic activity was determined using the maximum fluorescence intensity as the indicator of intracellular Ca2+ concentration.

[2] = biological target: T2, orexin-2 receptor (hOX2R) (Homo sapiens, UniProt O43614); assay: Measurement of orexin antagonistic activity (intracellular Ca2+ fluorescence, FDSS) on hOX2R; format: cell-based; details: CHO cells forcibly expressing hOX2R; Fluo-4AM; ligand peptide (substituted human orexin-A) 3 nM; compound preincubated 30 minutes; read-out: IC50 Value OX2
T2 construct: expressed in transfected cells; host or cells: Chinese hamster ovary (CHO) cells
T2 sequence (O43614 1-444): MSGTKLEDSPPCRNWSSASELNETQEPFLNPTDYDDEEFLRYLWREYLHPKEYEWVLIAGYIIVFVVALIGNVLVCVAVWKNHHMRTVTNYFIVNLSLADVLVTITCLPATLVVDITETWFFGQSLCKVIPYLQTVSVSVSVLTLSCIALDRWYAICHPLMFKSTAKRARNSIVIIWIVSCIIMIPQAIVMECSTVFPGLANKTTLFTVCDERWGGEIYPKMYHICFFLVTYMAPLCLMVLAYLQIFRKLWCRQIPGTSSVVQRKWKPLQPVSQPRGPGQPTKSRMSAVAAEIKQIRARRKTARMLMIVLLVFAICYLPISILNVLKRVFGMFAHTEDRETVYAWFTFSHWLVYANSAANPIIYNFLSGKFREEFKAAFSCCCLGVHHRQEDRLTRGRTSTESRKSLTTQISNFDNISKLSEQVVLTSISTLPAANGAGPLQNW
Experimental: as §1, §2

Compound `CCN(C(=O)c1cc(C)ccc1-n1nccn1)[C@@H](C)Cn1ccc(-c2ccc(F)cn2)n1` [Example 1, N-Ethyl-N-{(2S)-1-[3-(5-fluoropyridin-2-yl)-1H-pyrazol-1-yl]propan-2-yl}-5-methyl-2-(2H-1,2,3-triazol-2-yl)benzamide] has an IC50 [1] of 1 nM and an IC50 [2] of 1.1 nM.
Compound `CCN(C(=O)c1cc(C)ccc1-n1nccn1)[C@H](C)Cn1ccc(-c2ccc(F)cn2)n1` [Example 2, N-Ethyl-N-{(2R)-1-[3-(5-fluoropyridin-2-yl)-1H-pyrazol-1-yl]propan-2-yl]-5-methyl-2-(2H-1,2,3-triazol-2-yl) benzamide] has an IC50 [1] of 17.4 nM and an IC50 [2] of 186 nM.
`CCN(C(=O)c1nc(C)ccc1-n1nccn1)[C@@H](C)Cn1ccc(-c2ccc(F)cc2)n1` [Example 3, N-Ethyl-N-[(2S)-1-[3-(4-fluorophenyl)-1H-pyrazol-1-yl]propan-2-yl]-6-methyl-3-(2H-1,2,3-triazol-2-yl) pyridine-2-carboxamide] gave an IC50 [1] of 1 nM and an IC50 [2] of 4.5 nM.
`C[C@@H](Cn1ccc(-c2ccc(F)cn2)n1)N(C)C(=O)c1ccccc1-c1ncccn1` [Example 4, N-[(2S)-1-[3-(5-Fluoropyridin-2-yl)-1H-pyrazol-1-yl]propan-2-yl]-N-methyl-2-(pyrimidin-2-yl)benzamide] showed an IC50 [1] of 1.7 nM and an IC50 [2] of 67 nM.
For `C[C@@H](Cn1ccc(-c2ccc(F)cn2)n1)N(C)C(=O)c1cc(F)ccc1-c1ncccn1` [Example 5, 5-Fluoro-N-{(2S)-1-[3-(5-fluoropyridin-2-yl)-1H-pyrazol-1-yl]propan-2-yl}-N-methyl-2-(pyrimidin-2-yl)benzamide], the IC50 [2] was 75.5 nM.
`Cc1ccc(-c2ncccn2)c(C(=O)N(C)[C@@H](C)Cn2ccc(-c3ccc(F)cn3)n2)c1` [Example 6, N-{(2S)-1-[3-(5-Fluoropyridin-2-yl)-1H-pyrazol-1-yl]propan-2-yl}-N,5-dimethyl-2-(pyrimidin-2-yl) benzamide] was tested, and the IC50 [1] was 1.2 nM and the IC50 [2] was 8.4 nM.
In the case of `CCN(C(=O)c1ccccc1-c1ncccn1)[C@@H](C)Cn1ccc(-c2ccc(F)cn2)n1` [Example 7, N-Ethyl-N-{(2S)-1-[3-(5-fluoropyridin-2-yl)-1H-pyrazol-1-yl]propan-2-yl}-2-(pyrirnidin-2-yl) benzamide], the IC50 [1] is reported as 6.8 nM and the IC50 [2] is reported as 43.1 nM.
With `CCN(C(=O)c1cc(F)ccc1-c1ncccn1)[C@@H](C)Cn1ccc(-c2ccc(F)cn2)n1` [Example 8, N-Ethyl-5-fluoro-N-[(2S)-1-[3-(5-fluoropyridin-2-yl)-1H-pyrazol-1-yl]propan-2-yl]-2-(pyrimidin-2-yl) benzamide] the IC50 [1] was 1.5 nM and the IC50 [2] was 35.3 nM.
With `CCN(C(=O)c1cc(F)ccc1-c1ncccn1)[C@H](C)Cn1ccc(-c2ccc(F)cn2)n1` [Example 9, N-Ethyl-5-fluoro-N-[(2R)-1-[3-(5-fluoropyridin-2-yl)-1H-pyrazol-1-yl]propan-2-yl)-2-(pyrimidin-2-yl) benzamide] the IC50 [1] was 988 nM and the IC50 [2] was 1420 nM.
Work on `CCN(C(=O)c1ccccc1-c1ncccn1)[C@@H](C)Cn1ccc(-c2ccc(F)cc2)n1` [Example 10, N-Ethyl-N-[(2S)-1-[3-(4-fluorophenyl)-1H-pyrazol-1-yl]propan-2-yl)-2-(pyrimidin--2-yl) benzamide] yielded an IC50 [1] of 0.2 nM and an IC50 [2] of 12.8 nM.
With `CCN(C(=O)c1cc(F)ccc1-c1ncccn1)[C@@H](C)Cn1ccc(-c2ccc(F)cc2)n1` [Example 11, N-Ethyl-5-fluoro-N-[(2S)-1-[3-(4-fluorophenyl)-1H-pyrazol-1-yl]propan-2-yl}-2-(pyrimidin-2-yl) benzamide] the IC50 [1] was 0.2 nM and the IC50 [2] was 14.4 nM.
With `CCN(C(=O)c1cc(F)ccc1-c1ncccn1)[C@H](C)Cn1ccc(-c2ccc(F)cc2)n1` [Example 12, N-Ethyl-5-fluoro-N-[(2R)-1-[3-(4-fluorophenyl)-1H-pyrazol-1-yl]propan-2-yl]-2-(pyrimidin-2-yl)benzamide] the IC50 [1] was 364 nM and the IC50 [2] was 580 nM.
`CCN(C(=O)c1c(F)cccc1-c1ncccn1)[C@@H](C)Cn1ccc(-c2ccc(F)cc2)n1` [Example 13, N-Ethyl-2-fluoro-N-[(2S)-1-[3-(4-fluorophenyl)-1H-pyrazol-1-yl]propan-2-yl)-6-(pyrimidin-2-yl)benzamide] was tested, and the IC50 [1] was 1.9 nM and the IC50 [2] was 53.9 nM.
`CCN(C(=O)c1ccc(F)cc1-c1ncccn1)[C@@H](C)Cn1ccc(-c2ccc(F)cc2)n1` [Example 14, N-Ethyl-4-fluoro-N-[(2S)-1-[3-(4-fluorophenyl)-1H-pyrazol-1-yl]propan-2-yl)-2-(pyrimidin-2-yl)benzamide] gave an IC50 [1] of 1.3 nM and an IC50 [2] of 7 nM.
Compound `CCN(C(=O)c1nc(C)ccc1-c1ncccn1)[C@@H](C)Cn1ccc(-c2ccc(F)cc2)n1` [Example 15, N-Ethyl-N-[(2S)-1-[3-(4-fluorophenyl)-1H-pyrazol-1-yl]propan-2-yl}-6-methyl-3-(pyrimidin-2-yl)pyridine-2-carboxamide] has an IC50 [1] of 1.2 nM and an IC50 [2] of 18 nM.
`CCN(C(=O)c1nc(C)ccc1-n1nccn1)[C@@H](C)Cn1ccc(-c2ccc(F)c(F)c2)n1` [Example 16, N-[(2S)-1-[3-(3,4-Difiuorophenyl)-1H-pyrazol-1-yl]propan-2-yl]-N-ethyl-6-methyl-3-(2H-1,2,3-triazol-2-yl)pyridine-2-carboxamide] was tested, and the IC50 [1] was 1.8 nM and the IC50 [2] was 9.7 nM.
Compound `CCN(C(=O)c1cc(F)ccc1-c1ncccn1)[C@@H](C)Cn1ccc(-c2ccc(F)c(F)c2)n1` [Example 17, N-{(2S)-1-[3-(3,4-Difluorophenyl)-1H-pyrazol-1-yl]propan-2-yl}-N-ethyl-5-fluoro-2-(pyrimidin-2-yl)benzamide] has an IC50 [1] of 2.1 nM and an IC50 [2] of 10.1 nM.
With `CCN(C(=O)c1ccccc1-n1nccn1)[C@@H](C)Cn1ccc(-c2ccc(F)cn2)n1` [Example 18, N-Ethyl-N-{(2S)-1-[3-(5-fluoropyridin-2-yl)-1H-pyrazol-1-yl]propan-2-yl}-2-(2H-1,2,3-triazol-2-yl)benzamide] the IC50 [1] was 0.7 nM and the IC50 [2] was 7.7 nM.
For `Cc1ccc(-n2nccn2)c(C(=O)N(C)[C@@H](C)Cn2ccc(-c3ccc(F)cn3)n2)c1` [Example 19, N-{(2S)-1-[3-(5-Fluoropyridin-2-yl)-1H-pyrazol-1-yl]propan-2-yl}-N,5-dimethyl-2-(2H-1,2,3-triazol-2-yl) benzamide], the IC50 [1] was 1.1 nM and the IC50 [2] was 5.8 nM.
With `C[C@@H](Cn1ccc(-c2ccc(F)cn2)n1)N(C)C(=O)c1ccccc1-n1nccn1` [Example 20, N-{(2S)-1-[3-(5-Fluoropyridin-2-yl)-1H-pyrazol-1-yl]propan-2-yl}-N-methyl-2-(2H-1,2,3-triazol-2-yl)benzamide] the IC50 [1] was 3.4 nM and the IC50 [2] was 55.9 nM.
`CCN(C(=O)c1ccccc1-n1nccn1)[C@@H](C)Cn1cc(-c2ccc(F)cn2)cn1` [Example 21, N-Ethyl-N-{(2S)-1-[4-(5-fluoropyridin-2-yl)-1H-pyrazol-1-yl]propan-2-yl}-2-(2H-1,2,3-triazol-2-yl)benzamide] gave an IC50 [1] of 8.1 nM and an IC50 [2] of 188 nM.
`Cc1ccc(-n2nccn2)c(C(=O)N(C)[C@@H](C)Cn2cc(-c3ccc(F)cn3)cn2)c1` [Example 22, N-{(2S)-1-[4-(5-Fluoropyridin-2-yl)-1H-pyrazol-1-yl]propan-2-yl}-N,5-dimethyl-2-(2H-1,2,3-triazol-2-yl) benzamide] showed an IC50 [1] of 3.8 nM and an IC50 [2] of 52.9 nM.
In the case of `Cc1ccc(-c2ncccn2)c(C(=O)N(C)[C@@H](C)Cc2noc(-c3ccc(F)cn3)n2)c1` [Example 46, N-{(2S)-1-[5-(5-Fluoropyridin-2-yl)-1,2,4-oxadiazol-3-yl]propan-2-yl}-N,5-dimethyl-2-(pyrimidin-2-yl)benzamide], the IC50 [1] is reported as 21.6 nM.
